Experimental data from patent US11203597B2, “Crystalline spirocyclic compound, a dosage form containing, a method for using in treatment of disease, and a method for recrystallizing” (Altavant Sciences GmbH, priority 2018, dated 2021).
Converted amounts (≈) assume the structure as drawn. One block for each molecule: values may come before it.

How the values were obtained:
Format in all cases: physicochemical
[1] = Competitive slurry experiments in n-heptane (XRPD); details: slurry in 10 volumes of n-heptane
Description: Competitive slurry experiments were performed to ascertain if Compound 1 samples of Form 1 and mixtures of Form 1 and Form 3 can be converted to Form 3. Pure Form 1 and Form 3 were also tested. First, 700 mg of Compound 1 were added in different ratios to 10 volumes of n-heptane and stirred for […] (Table 2). After 16 hours and four days, the samples were checked for polymorphic form by XRPD. […]

[2] = Stability of polymorph form by pH measurement when stirred in water
Description: Additional tests were performed to understand the differences between form 1 and 3. One of those tests was to check stability of polymorph form by pH measurement at several times when the different forms were stirred in water (Table 11). During the tests, any changes in polymorph form were checked.

[3] = Shake-flask solubility determination with stepwise addition of solvent
Source text: The method applied was a shake-flask solubility determination with stepwise addition of the solvent until complete dissolution is observed visually.

[4] = Thermodynamic stability of polymorphs; details: particularly at temperatures of less than 95° C., more particularly less than 80° C.
[5] = Solubility determination by HPLC
Source text: Because of the small differences in solubilities, HPLC was used to measure the solubilities. The values were conformed to the shake-flask results. […] In alcohol, there was a difference in dissolution rate. This difference was not observed for aqueous solutions.

[6] = Solubility of Compound 1, Form 3 in MTBE/n-heptane mixtures; details: organic solvent or mixture, thermodynamic from solid
Description: Solubility of Compound 1, Form 3
The solubility of Compound 1 was evaluated in mixtures of MTBE/n-heptane mixtures at 10° C. and 45° C. The form of the residual solids was examined by XRPD.

XRPD 16 hours [1]: Form 1
XRPD 4 days [1]: Form 3
Compound: CCOC(=O)[C@@H]1CC2(CCN(c3cc(O[C@H](c4ccc(Cl)cc4-c4ccccc4)C(F)(F)F)nc(N)n3)CC2)CN1 [ES928-60-1]

pH (2 hours) [2]: 8.68
pH (4 hours) [2]: 8.22
pH (7 hours) [2]: 8.05
Compound: CCOC(=O)[C@@H]1CC2(CCN(c3cc(O[C@H](c4ccc(Cl)cc4-c4ccccc4)C(F)(F)F)nc(N)n3)CC2)CN1 [ES928-59-1]

XRPD 16 hours [1]: remained as Form 1
XRPD 4 days [1]: slowly converts to Form 3
solubility ([3]; 2-methyl-tetrahydrofuran, organic solvent or mixture, thermodynamic from solid, 2-methyl-tetrahydrofuran, read-out: Solubility): 97 to 970 mg/mL (≈ 164 to 1640 mM)
solubility ([3]; 2-propanol): 98 to 980 mg/mL
solubility ([3]; I-propanol): 101 to 1010 mg/mL
solubility ([3]; N,N-dimethyl-acetamide, organic solvent or mixture, thermodynamic from solid, N,N-dimethyl-acetamide, read-out: Solubility): 96 to 960 mg/mL (≈ 163 to 1630 mM)
solubility ([3]; acetic acid): 32 to 95 mg/mL
solubility ([3]; acetone, organic solvent or mixture, thermodynamic from solid, acetone, read-out: Solubility): 96 to 960 mg/mL (≈ 163 to 1630 mM)
solubility ([3]; acetonitrile, organic solvent or mixture, thermodynamic from solid, acetonitrile, read-out: Solubility): 99 to 990 mg/mL (≈ 168 to 1680 mM)
solubility ([3]; dimethyl sulfoxide, organic solvent or mixture, thermodynamic from solid, dimethyl sulfoxide, read-out: Solubility): 101 to 1010 mg/mL (≈ 171 to 1710 mM)
solubility ([3]; ethanol): 96 to 960 mg/mL
solubility ([3]; ethyl acetate, organic solvent or mixture, thermodynamic from solid, ethyl acetate, read-out: Solubility): 101 to 1010 mg/mL (≈ 171 to 1710 mM)
solubility ([3]; formic acid 99%, organic solvent or mixture, thermodynamic from solid, formic acid 99%, read-out: Solubility): 97 to 970 mg/mL (≈ 164 to 1640 mM)
solubility ([3]; isopropyl acetate, organic solvent or mixture, thermodynamic from solid, isopropyl acetate, read-out: Solubility): 103 to 1030 mg/mL (≈ 175 to 1750 mM)
solubility ([3]; methanol, organic solvent or mixture, thermodynamic from solid, methanol, read-out: Solubility): 99 to 990 mg/mL (≈ 168 to 1680 mM)
solubility ([3]; methyl isobutyl, organic solvent or mixture, thermodynamic from solid, methyl isobutyl, read-out: Solubility): 99 to 990 mg/mL (≈ 168 to 1680 mM)
solubility ([3]; methyl tert-butyl ether, organic solvent or mixture, thermodynamic from solid, methyl tert-butyl ether, read-out: Solubility): 102 to 1020 mg/mL (≈ 173 to 1730 mM)
solubility ([3]; n-heptane, organic solvent or mixture, thermodynamic from solid, n-heptane, read-out: Solubility): < 10.1 mg/mL
solubility ([3]; tetrahydrofuran, organic solvent or mixture, thermodynamic from solid, tetrahydrofuran, read-out: Solubility): 97 to 970 mg/mL (≈ 164 to 1640 mM)
solubility ([3]; toluene, organic solvent or mixture, thermodynamic from solid, toluene, read-out: Solubility): 98 to 980 mg/mL (≈ 166 to 1660 mM)
solubility ([3]; water, thermodynamic from solid, water, read-out: Solubility): < 10 mg/mL
Compound: CCOC(=O)[C@@H]1CC2(CCN(c3cc(O[C@H](c4ccc(Cl)cc4-c4ccccc4)C(F)(F)F)nc(N)n3)CC2)CN1 [Form 1, (S)-ethyl 8-(2-amino-6-((R)-1-(5-chloro-[1,1′-biphenyl]-2-yl)-2,2,2-trifluoroethoxy)pyrimidin-4-yl)-2,8-diazaspiro[4.5]decane-3-carboxylate]

XRPD 16 hours [1]: Form 3
XRPD 4 days [1]: Form 3
Compound: CCOC(=O)[C@@H]1CC2(CCN(c3cc(O[C@H](c4ccc(Cl)cc4-c4ccccc4)C(F)(F)F)nc(N)n3)CC2)CN1 [ES928-60-4]

pH (2 hours) [2]: 8.71
pH (4 hours) [2]: 8.65
pH (7 hours) [2]: 8.32
Compound: CCOC(=O)[C@@H]1CC2(CCN(c3cc(O[C@H](c4ccc(Cl)cc4-c4ccccc4)C(F)(F)F)nc(N)n3)CC2)CN1 [ES928-59-3]

dissolution of remaining slurry in time ([5]; ethanol): dissolved completely
solubility ([6]; MTBE/n-heptane 1/0, 45 °C): > 500 mg/mL
solubility ([6]; MTBE/n-heptane 1/1, 10 °C): 27.2 mg/mL (≈ 46.1 mM)
solubility ([6]; MTBE/n-heptane 1/1, 45 °C): 89.4 mg/mL (≈ 152 mM)
solubility ([6]; MTBE/n-heptane 1/2, 10 °C): 17.5 mg/mL (≈ 29.7 mM)
solubility ([6]; MTBE/n-heptane 1/4, 10 °C): 6.2 mg/mL (≈ 10.5 mM)
solubility ([6]; MTBE/n-heptane 1/5, 45 °C): 4.2 mg/mL (≈ 7.12 mM)
solubility ([3]; 2-methyl-tetrahydrofuran): 106 to 1060 mg/mL
solubility ([3]; 2-propanol): <10.1 mg/mL
solubility ([3]; I-propanol): 35 to 104 mg/mL
solubility ([3]; N,N-dimethyl-acetamide): 108 to 1080 mg/mL
solubility ([3]; acetic acid): 104 to 1040 mg/mL
solubility ([3]; acetone): 108 to 1080 mg/mL
solubility ([3]; acetonitrile): 99 to 990 mg/mL
solubility ([3]; dimethyl sulfoxide): 109 to 1090 mg/mL
solubility ([3]; ethanol): 33 to 100 mg/mL
solubility ([3]; ethyl acetate): 95 to 950 mg/mL
solubility ([3]; formic acid 99%): 96 to 960 mg/mL
solubility ([3]; isopropyl acetate): 94 to 940 mg/mL
solubility ([3]; methanol): 102 to 1020 mg/mL
solubility ([3]; methyl isobutyl): 100 to 1000 mg/mL
solubility ([3]; methyl tert-butyl ether): 106 to 1060 mg/mL
solubility ([3]; n-heptane): <9.9 mg/mL
solubility ([3]; tetrahydrofuran): 99 to 990 mg/mL
solubility ([3]; toluene): 105 to 1050 mg/mL
solubility ([3]; water): <10.0 mg/mL
Compound: CCOC(=O)[C@@H]1CC2(CCN(c3cc(O[C@H](c4ccc(Cl)cc4-c4ccccc4)C(F)(F)F)nc(N)n3)CC2)CN1 [Form 3, (S)-ethyl 8-(2-amino-6-((R)-1-(5-chloro-[1,1′-biphenyl]-2-yl)-2,2,2-trifluoroethoxy)pyrimidin-4-yl)-2,8-diazaspiro[4.5]decane-3-carboxylate]
thermodynamic stability compared to crystalline Form 1 [4]: substantially greater thermodynamic stability

Conc. Actual ([5]; Ethanol Abs.): 58000 µg/mL
Compound: CCOC(=O)[C@@H]1CC2(CCN(c3cc(O[C@H](c4ccc(Cl)cc4-c4ccccc4)C(F)(F)F)nc(N)n3)CC2)CN1 [EdA-928-63-2]

Conc. Actual ([5]; Buffer pH 1.2): 46000 µg/mL
Compound: CCOC(=O)[C@@H]1CC2(CCN(c3cc(O[C@H](c4ccc(Cl)cc4-c4ccccc4)C(F)(F)F)nc(N)n3)CC2)CN1 [ES-928-62-4]
